# From patent US9925222B2, “Gut barrier dysfunction treatment and prevention” (ALBERT EINSTEIN COLLEGE OF MEDICINE OF YESHIVA UNIVERSITY, priority 2012, dated 2018)
# What was measured:
# [1] = Pubchem, ST093573; cited from earlier work
# [2] = tested on: Tnf-α, Zo-1 and E-cad mRNA expression in gut epithelium; test: Ex vivo treatment of gut mucosa with OLA, rescue with indole and IPA, qPCR; type: cell-based; settings: OLA 5 mg/ml, 3 h ex vivo; all mice genotypes
# Description: Freshly isolated gut mucosa were incubated in the presence of OLA (5 mg/ml) for 3 h at 37° C., 5% CO2 (13). After 3 h of OLA treatment, enterocytes were isolated and pooled for RNA isolation. […] Experiments were performed at least two independent times. OLA has […] (log P), thus is unsuitable for in vivo studies of luminal bacterial enzyme inhibition (Pubchem, ST093573). 2.0 μg of total RNA extracted from pooled apical enterocytes with TRIzolR (Invitrogen), were reverse transcribed with random hexamer primers and SuperScriptTM III-RT enzyme (Invitrogen). Quantitative PCR (qPCR) reactions using TaqMan universal PCR master mix and TaqMan probes containing FAM as the 5' reporter fluorochrome and tetramethylrhodamine (MGB) as the 3' quencher fluorochrome, were performed in triplicate for each sample and analyzed on the ABI Prism 7900HT system. Primers and minor groove binder/non-fluorescent quencher probes used for PCR amplification were obtained from Applied Biosystems as well as the following assays on demand: […] Controls include RT-minus RNA samples. PCR reaction conditions for all assays were set at 50° C. for 2 minutes, 95° C. for 10 minutes, followed by 40 cycles of amplification (95° C. for 15 seconds then 60° C. for 1 minute).
compound,measurement,setting,value
"NC(CC1C(=O)Nc2ccccc21)C(=O)O [OLA, Oxindolyl L-alanine]",Predicted oral bioavailability (log P),[1],high
same,Enterocyte Tnf-α mRNA expression after OLA,[2],enhanced enterocyte Tnf-α mRNA expression
same,Expression of junctional regulators (Zo-1 and E-cad) after OLA,[2],diminished expression of junctional regulators
